System: cats
Experiment: Study 1: cat litter preference, pheromone-treated litter versus control litter
Type: in vivo
Conditions: for percentage preference (% of the cats using the treated litter): litter treated at 10 μg/3-lb (7.3 μg/kg), choice against control litter over 48 hours, 50% = no effect; for Litter Type Use, g, TRT (weights of litter after 2 days): treated litter box, 10 μg/3-lb, SE = 0.023; for Relative Difference, % / Significantly Different: treated versus control litter weight after 2 days; for effect on cats' litter preference: treated versus control litter, 48 hours
Description: In Study 1, four different treatments were tested: Androstenone (ANDRO); cat urinary pheromone, 3-mercapto-3-methyl-1-butanol (CAT); rabbit pheromone, 2-methylbut-2-enal (RP); and both the cat urinary pheromone and the rabbit pheromone (CAT+RP). 40 individual cats were used in this study to assess their preference to or aversion from a control litter versus a litter under one of the four treatments. Each treatment was tested with 10 cats. Litter was divided into 3 lb aliquots, and each aliquot was either used as a control or was mixed with a pheromone (or a pheromone combination) to be tested at a level of 10 μg/3-lb (or 7.3 μg/kg).
On Day 0, each cat was placed into an assigned chamber randomly placed with two litter boxes, one control and one treated. Each of the two litter boxes was weighed and the weight was recorded. The camera in the chamber was properly aligned to give a full view of the chamber and started taping on Day 0. On Day 1, 24 hours after the start of taping on Day 0, each of the two litter boxes in the chamber was weighed and the weight was recorded. On Day 2, 48 hours after the start of taping on Day 0, each of the two litter boxes in the chamber was again weighed. Litter can be disposed of after weighing on Day 2, and the camera was then turned off. The weights of the litter boxes over the 48 hours were used to determine whether the litter was used or not, and at which preference level.
The data were expressed as both a percentage preference (% of the cats using the treated litter in each treatment group) and by the weight of the litter (the litter gets heavier as it is soiled). It was expected that if the added pheromone had no effect on litter preference, 50% of the cats would use the treated litter and 50% would use the control litter. […] Further, the weight difference between a control litter or litter under treatment was used to show the relative strength of the effect of a particular treatment on cat's litter use behavior. During the study, some cats (N=3; 2 in CAT+RP and 1 in RP) spilled their litter and their data were unreliable and were not included.

Compound	percentage preference (% of the cats using the treated litter) [%]	Litter Type Use, g, TRT (weights of litter after 2 days) [g]	Relative Difference, % [%]	Significantly Different	effect on cats' litter preference
C[C@]12CCC(=O)C[C@@H]1CC[C@@H]1[C@@H]2CC[C@]2(C)C=CC[C@@H]12 [ANDRO, Androstenone]	50	0.571	−11	No	did not provide any attraction
CC(C)(S)CCO [CAT, 3-mercapto-3-methyl-1-butanol]	40	0.562	−43	Yes	slight aversion

— patent publication US10806121B2, “Animal litter containing a pheromone composition” (Sergeant's Pet Care Products, LLC, priority 2014, dated 2020)
